Laboratory results as given in PubChem BioAssay AID179 (DTP/NCI, 2004).
The source made the active and inactive calls.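 Rule for the calls: active = compounds giving half or more protection of infected cells from virus-caused growth loss, again on retest; inactive = the rest.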 Where a SMILES comes first, the peptide text is derived from it. Bridges are numbered along the chain shown (N, C = ends). The star is where a group is joined. Cbz = O=C(OCc1ccccc1)*; OBn = c1ccc(CO*)cc1

System: CEM cells HIV-1 protection, formazan growth assay
Assay: NCI AIDS Antiviral Assay
Conditions: for IC50: measured here: growth of uninfected CEM cells
How it was run: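 Soluble formazan readout of cell growth; CEM cells ± HIV-1; 5 drug concs. ≥50% protection → retest; ≥50% again = moderately active; reproducible 100% = confirmed active.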

Compound	EC50	IC50	outcome
CCC(c1ccc(Cl)cc1)N1CCC2(CC1)C(=O)NCN2c1ccccc1 (centres undefined)	> 200 µM	> 200 µM	–
Cc1cccc(C)c1NC(=O)CCC(=O)NC(N)=NC#N	> 457 µM	> 457 µM	–
COc1cc(C2c3cc4c(cc3OC(NCCO)C2C)OCO4)cc(OC)c1O (centres undefined)	> 200 µM	3.16 µM	–
CCOP(C)(=O)/C(Cc1ccc(OC)c(OC)c1)=N\O (centres undefined)	> 200 µM	> 200 µM	–
CCOC(=O)CC(=O)NC1CC2CCC1(C)C2(C)C (centres undefined)	> 200 µM	> 200 µM	–
O=C1C(=Cc2ccc(Cl)c(Cl)c2)C([O-])=C([P+](c2ccccc2)(c2ccccc2)c2ccccc2)C([O-])=C1[P+](c1ccccc1)(c1ccccc1)c1ccccc1	> 100 µM	1.23 µM	–
CC(=O)Oc1ccc2cc(Oc3ccc(Cl)cc3)c(=O)oc2c1	> 200 µM	83.2 µM	–
O=C(O)c1c2c(nc3ccccc13)CCC2	> 447 µM	> 447 µM	–
COc1cc2c(cc1OC)C1C3CCCCC3CCN1CC2 (centres undefined)	> 200 µM	138 µM	–
CCNC12CCC(C1)C(C)(C)C2=O (centres undefined)	> 200 µM	> 200 µM	–
O=C(O)c1cc([N+](=O)[O-])cc([N+](=O)[O-])c1/C=C/n1c(=S)[nH]c2ccc([N+](=O)[O-])cc21	> 100 µM	91.2 µM	–
COc1ccc(C2NC3=C(CCCC3)C3(C#N)C(=O)N=C(N)C23C#N)cc1 (centres undefined)	> 200 µM	107 µM	–
COC(=O)C1Cc2c(n(C)c3ccccc23)C(c2ccccc2)N1 (centres undefined)	–	–	inactive
CC(C)(C)[Si](C)(C)OCC1OC(n2ccc(=O)[nH]c2=O)C(O[Si](C)(C)C(C)(C)C)/C1=C/C(N)=N\O (centres undefined)	> 200 µM	9.12 µM	–
OCC1OC(NC(=S)NCSCCC(F)(F)C(F)(F)C(F)(F)C(F)(F)C(F)(F)C(F)(F)F)C(O)C(O)C1O (centres undefined)	> 200 µM	7.24 µM	–
CC(=O)CC(=O)ON(C)C(=O)Cc1ccccc1	> 1000 µM	> 1000 µM	–
CC1CC(c2ccc(Cl)c(Cl)c2)=Nc2ccccc2S1 (centres undefined)	> 6.17 µM	> 6.17 µM	–
CCCCCCOP(=O)(OCCCCCC)OC(C(=O)OC)C(F)(F)F (centres undefined)	> 200 µM	44.7 µM	–
COC(=O)C1CCC(=O)NCCCCC(NC(=O)C(CC(=O)OCc2ccccc2)NC(=O)OCc2ccccc2)C(=O)N1 (stereo not drawn) (Cbz-Asp(OBn)-Lys-Glu-OMe; lactam 2-3; configuration not given here)	> 200 µM	> 200 µM	–
Clc1ccc2c(c1)Oc1ccccc1C=N2	> 363 µM	6.31 µM	–
CCSCCCCCCCCCCC(=O)OCC1OC(n2cc(C)c(=O)[nH]c2=O)CC1O (centres undefined)	> 56.2 µM	26.3 µM	–
COC(=O)[C@@H]1C[C@]2(CC=O)c3ccccc3N(S(=O)(=O)c3ccccc3)[C@@H]2N1C(=O)OC	> 100 µM	70.8 µM	–

Compound	EC50	IC50	outcome
COC1(OC)N=C(N)C2(C#N)C(c3ccccc3)NC3=C(CCC3)C12C#N (centres undefined)	> 200 µM	> 200 µM	–
Cc1nnc(CC#N)n1NC(=O)CC#N	> 200 µM	> 200 µM	–
COC(=O)C1C(C(=O)OC)C2(OC(c3ccc(Cl)cc3)=CC2=O)C12OC(c1ccc(Cl)cc1)=CC2=O (centres undefined)	> 200 µM	4.27 µM	–
Nc1nc(Cl)c(N)c(NCC2(CO)CCC2)n1	> 200 µM	115 µM	–
O=C1CSC(c2ccccc2)N1c1ccc(-n2c(-c3ccccc3)nc3ccccc3c2=O)cc1 (centres undefined)	> 200 µM	35.5 µM	–
Cc1nc(N)nc(N)c1N1CCN(c2ccc(N)cc2)CC1	> 200 µM	2.82 µM	–
CC(O)CN1c2ccccc2Sc2ccc(Cl)cc21 (centres undefined)	> 200 µM	42.7 µM	–
c1ccc(CSC(SCc2ccccc2)c2cccc3ccccc23)cc1	5.89 µM	> 200 µM	–
CC1(c2cccc(C3CCC4(C=CC3=O)OCCO4)c2)OCCO1 (centres undefined)	> 200 µM	1.91 µM	–
CC(C)C1=CC23CCC4C(C)(C(=O)O)CCCC4(C)C2CC1C1C(=O)N(c2ccccc2)C(=O)C13 (centres undefined)	> 52.5 µM	> 52.5 µM	–
COC(=O)/C=C1\C(CO)OC(n2ccc(=O)[nH]c2=O)C1O (centres undefined)	> 200 µM	> 200 µM	–
COc1ccc(C[C@H]2C(=O)OC[C@@H]2Cc2ccc(OC)c(OC)c2)cc1	> 200 µM	24 µM	–
CC(=O)Nc1cc(N=Nc2ccc(N=Nc3ccc(NC(=O)c4ccc(N)cc4)cc3C)cc2C)c(S(=O)(=O)O)cc1N=Nc1ccc(C(=O)O)cc1	> 123 µM	115 µM	–
CC(C)=CC1CC(=O)C1(C)Sc1ccccc1 (centres undefined)	> 40.7 µM	> 40.7 µM	–
c1cn[nH]c1	> 3630 µM	1780 µM	–
COC(=O)C1=C(C(=O)OC)C2=S(SC3=C2CCCC3)S1 (centres undefined)	–	–	inactive
CCOC(=O)c1c(N2CCCC2)[nH]c(=O)c(C(c2cccs2)c2c(O)c(C(=O)OCC)c(N3CCCC3)[nH]c2=O)c1O	> 200 µM	141 µM	–
CC(=O)OCC1OC(n2c(=S)n(-c3ccccc3)c(=O)c3cc(Br)cc(Br)c32)C(OC(C)=O)C(OC(C)=O)C1OC(C)=O (centres undefined)	> 18.2 µM	> 18.2 µM	–
CS/C(=N\c1nccs1)NC(=O)c1cccc(Cl)c1	> 58.9 µM	> 58.9 µM	–
N=c1c2ccccc2nnn1Cc1ccccc1	> 178 µM	> 178 µM	–
COc1ccc2cc(-c3ccc(OC)c(OC)c3)c(=O)oc2c1	> 200 µM	> 200 µM	–
CCOC(=O)/C(=C\c1cccc(OC)c1)P(=O)(OCC)OCC	> 525 µM	11.5 µM	–

Compound	EC50	IC50	outcome
CCOC(=O)c1c(-c2cc(OC)c(OC)c(OC)c2)csc1NC(=O)c1ccccc1	> 200 µM	12.6 µM	–
Cn1c(=O)c2c(nc3n(Cc4ccccc4)c(=O)c(NCCCBr)cn23)n(C)c1=O	30.9 µM	41.7 µM	–
O=C1OCCSCCOCCSCCOC(=O)c2cccc1n2	–	–	inactive
CCOC(=O)c1cnc2[nH]c(=O)c3ccccc3n2c1=O	–	–	inactive
CCSc1[nH]c(NC(=NC(C)C)NC(=O)c2ccccc2)c(C(N)=O)c1C(N)=O	–	–	inactive
CN(/N=C(\C(=O)O)c1ccccc1)C1=NCCCN1	> 200 µM	> 200 µM	–
N#C/C(=C/NC(=S)Nc1ccc(S(N)(=O)=O)cc1)C(N)=O	> 200 µM	178 µM	–
CC(=O)Nc1ccccc1Sc1ccccc1	> 245 µM	69.2 µM	–
COc1ccccc1NC(=O)/C(=C/n1c(=S)[nH]c2ccccc21)C(C)=O	> 200 µM	> 200 µM	–
Cc1cccc(-c2nnc3s/c(=C\c4ccc(N(C)C)cc4)c(=O)n23)c1	> 30.9 µM	> 30.9 µM	–
CCOC(=O)C1=C(O)c2c(sc(C)c2-c2ccccc2)N(S(=O)(=O)c2ccc(C)cc2)CC1	> 100 µM	4.79 µM	–
Nc1ncnc2c1ncn2C1OC(CSCC(F)(F)F)C(O)C1O (centres undefined)	> 692 µM	245 µM	–
O=C(O)C(Cc1ccccc1)N1C(=O)N/C(=C\c2ccc(F)cc2)C1=O (centres undefined)	–	–	inactive
O=c1[nH]c(=O)n(C2OC(CO)C(O)C2O)c2nccnc12 (centres undefined)	> 200 µM	> 200 µM	–
COC(=O)C(C(=O)Cc1ccccc1[N+](=O)[O-])C(=O)OC	> 251 µM	102 µM	–
NCCCNCCSSC/C=C\CSSCCNCCCN	–	–	inactive
COc1ccc([C@@H]2ON(C)[C@H]3CN(C)C(=O)[C@@H]23)cc1	> 200 µM	> 200 µM	–
O=C(c1c(F)c(F)c(F)c(F)c1F)n1c(=S)n(C(=O)c2c(F)c(F)c(F)c(F)c2F)c2ccccc21	> 100 µM	4.9 µM	–
O=C1NCCS(=O)(=O)N2CCC[C@@H]12	> 1230 µM	> 1230 µM	–
O=C1CCSC2=C1SCc1sccc12	–	–	inactive
CN1C(c2ccccc2)=C(C#N)C(=O)CC(c2cccs2)N1C (centres undefined)	> 200 µM	191 µM	–
CC1(C)C2CC(O)C1(C)CC2=O (centres undefined)	> 200 µM	170 µM	–

Compound	EC50	IC50	outcome
CC[C@@H]1CN2CCc3c([nH]c4ccccc34)[C@@H]2C[C@@H]1/C(=C\OC)C(=O)OC	> 64.6 µM	> 64.6 µM	–
O=P1(Nc2ccc(/C=C3\C=Cc4ccccc43)cc2)NCCCO1 (centres undefined)	> 39.8 µM	22.9 µM	–
C=C(c1ccc(OC)cc1)C(CC)c1ccc(OC)cc1 (centres undefined)	> 200 µM	37.2 µM	–
CC(C)(C)OC(=O)N1CCc2c(n(C/C=C/c3ccccc3)[nH]c2=O)C1	> 200 µM	19.1 µM	–
CC(=O)OC1C=CS(=O)(=O)C1 (centres undefined)	> 200 µM	15.8 µM	–
O=C(CC(O)(C(F)(F)F)C(F)(F)F)C(c1ccccc1)C(O)(C(F)(F)F)C(F)(F)F (centres undefined)	–	–	inactive
O=C1CCC2(c3ccc(F)cc3)Nc3ccccc3N12 (centres undefined)	–	–	inactive
O=C(Cc1ccc(OCc2cccc(Cl)c2)cc1)NO	> 200 µM	29.5 µM	–
COc1cc(C2C3=C(N=C4SC(C(C)=O)=C(C)N42)c2ccccc2CC3)cc(OC)c1OC (centres undefined)	> 200 µM	40.7 µM	–
CCC(C)C(=Nc1ccc(Cl)c(Cl)c1)N(C)C (centres undefined)	–	–	inactive
CCCc1cc(=O)oc2c3c(ccc12)OC(C)(C)[C@H](OC(=O)C12CCC(C)(C(=O)O1)C2(C)C)[C@@H]3OC(=O)C12CCC(C)(C(=O)O1)C2(C)C (some centres undefined)	0.891 µM	> 200 µM	–
COc1ccccc1NC(=S)Nc1ccccn1	> 200 µM	> 200 µM	–
Cc1ccc(O)c(OC2OC(C(=O)O)C(O)C(O)C2O)c1 (centres undefined)	> 832 µM	> 832 µM	–
O=c1[nH]n(Cc2ccccn2)c2ccc([N+](=O)[O-])cc12	> 200 µM	> 200 µM	–
c1csc(-c2cscc2-c2ccsc2)c1	> 200 µM	38.9 µM	–
C=CCn1c(-c2ccccc2)cs/c1=N\C(P(=O)(O)O)P(=O)(O)O	> 200 µM	> 200 µM	–
Cc1cccc(C)c1N1C(=O)C(=O)C(c2nc3ccccc3s2)/C(=N/NC(=O)NN)C1=O (centres undefined)	–	–	inactive
Nc1ccc2cc3[nH]c4cc(N)ccc4c3nc2c1	> 1.35 µM	0.339 µM	–
O=C(O)c1nc2cc(C(F)(F)F)ccc2[nH]c1=O	> 200 µM	> 200 µM	–
CC1(C)C=Cc2c(ccc3c(=O)c(-c4ccccc4)coc23)O1	> 100 µM	> 100 µM	–
c1ccc2c(c1)N=C(c1cccc3ccccc13)CC(c1cccc3ccccc13)S2 (centres undefined)	> 2.51 µM	> 2.51 µM	–
CCOc1ccc(NC(=O)C(=O)NO)cc1	> 302 µM	178 µM	–
